# Columns and labels:
# [1] = AUC (24 hrs) in fasted human at 1000 mg, po every 24 hrs measured on day 8; type: ADME, organism-based; set-up: dose 1000 mg, time < 24 hr, route oral; conditions: plasma
# [2] = Cmax in fasted human plasma at 400 mg, po every 12 hrs measured on day 8; type: ADME, organism-based; set-up: dose 400 mg, route oral
# [3] = test system: Human immunodeficiency virus 1; assay: Antiviral activity against HIV1 infected in fasted human assessed as decrease in log10 HIV RNA copies/ml at 400 mg, po BID for 7 days as four modified-release capsules followed by a single dose on day 8 measured on day 9 relative to pooled placebo control; type: functional
# [4] = Cmax in fasted human at 1000 mg, po every 24 hrs measured on day 8; type: ADME, organism-based; set-up: dose 1000 mg, route oral; conditions: plasma
# [5] = test system: Human immunodeficiency virus 1; assay: Antiviral activity against HIV1 infected in fasted human assessed as viral load decay rate as viral log10 RNA copies/ml/day at 600 mg, po BID for 7 days as four modified-release capsules followed by a single dose on day 8 measured per day for 9 days; type: functional
# [6] = Cmax in human plasma at 300 mg administered as multiple doses, BID; type: ADME, organism-based; set-up: dose 300 mg
# [7] = Tmax in fasted human at 600 mg, po every 24 hrs measured on day 8; type: ADME, organism-based; conditions: in vivo
# [8] = test system: Homo sapiens; assay: Reduction in uric acid level in healthy human serum at 800 mg, po administered every day; type: ADME, organism-based; conditions: in vivo
# [9] = test system: Homo sapiens; assay: Reduction in uric acid level in healthy human serum at 600 mg, po administered every day; type: functional
# [10] = test system: Human immunodeficiency virus 1; assay: Antiviral activity against HIV1 infected in human assessed as change in CD4 expressing T-cell count from baseline at 800 mg, po administered every day as four enteric-coated tablets followed by a single dose on day 8 measured on day 9 relative to pooled placebo control; type: functional
# [11] = test system: Human immunodeficiency virus 1; assay: Antiviral activity against HIV1 infected in human assessed as change in CD4 expressing T-cell count from baseline at 600 mg, po BID for 7 days as four modified-release capsules followed by a single dose on day 8 measured on day 9 relative to pooled placebo control; type: functional
# [12] = Drug concentration at steady state in fasted human plasma at 400 mg, po every 12 hrs measured on day 8; type: ADME, organism-based; conditions: read-out: Drug uptake
# [13] = Cmax in human plasma at 500 mg administered as multiple doses, BID; type: ADME, organism-based; set-up: dose 500 mg
# [14] = Plasma protein binding in dog; type: ADME, cell-free, Canis lupus familiaris; conditions: read-out: PPB
# [15] = species: Homo sapiens; assay: Toxicity in healthy human assessed as occurrence of adverse events; type: organism-based; conditions: in vivo
# [16] = test system: Human immunodeficiency virus 1; assay: Antiviral activity against HIV1 infected in human assessed as change in CD4 expressing T-cell count from baseline at 400 mg, po BID for 7 days as four modified-release capsules followed by a single dose on day 8 measured on day 9 relative to pooled placebo control; type: functional
# [17] = Renal clearance in rhesus monkey; type: ADME, organism-based, Macaca mulatta, Kidney; conditions: in vivo, read-out: CL_renal
# [18] = Tmax in fasted human at 800 mg, po every 24 hrs measured on day 8; type: ADME, organism-based; conditions: in vivo
# [19] = test system: Human immunodeficiency virus 1; assay: Antiviral activity against HIV1 infected in human assessed as change in CD8 expressing T-cell count from baseline at 400 mg, po BID for 7 days as four modified-release capsules followed by a single dose on day 8 measured on day 9 relative to pooled placebo control; type: functional
# [20] = Drug excretion in rhesus monkey urine; type: ADME, Macaca mulatta; conditions: read-out: Activity
# [21] = AUC (0 to 12 hrs) in human plasma at 300 mg administered as multiple doses, BID; type: ADME, organism-based; set-up: time < 12 hr, dose 300 mg
# [22] = test system: Human immunodeficiency virus 1; assay: Antiviral activity against HIV1; type: functional, organism-based
# [23] = test system: Human immunodeficiency virus 1; assay: Antiviral activity against HIV1 infected in fasted human assessed as decrease in plasma viral log10 RNA copies/ml at 800 mg, po […] followed by a single dose on day 8 measured on day 9 relative to pooled placebo control; type: functional
# [24] = test system: Homo sapiens; assay: Reduction in uric acid level in healthy human serum at 1000 mg, po administered every day; type: ADME, organism-based; conditions: in vivo
# [25] = AUC (0 to 12 hrs) in human plasma at 500 mg administered as multiple doses, BID; type: ADME, organism-based; set-up: dose 500 mg, time < 12 hr
# [26] = test system: Human immunodeficiency virus 1; assay: Antiviral activity against HIV1 infected in human assessed as change in CD8 expressing T-cell count from baseline at 1000 mg, po administered every day as five enteric-coated tablets followed by a single dose on day 8 measured on day 9 relative to pooled placebo control; type: functional
# [27] = Drug excretion in dog urine; type: ADME, Canis lupus familiaris; conditions: read-out: Activity
# [28] = test system: Human immunodeficiency virus 1; assay: Antiviral activity against HIV1 infected in fasted human assessed as decrease in log10 HIV RNA copies/ml at 1000 mg, po […] followed by a single dose on day 8 measured on day 9 relative to pooled placebo control; type: functional
# [29] = Drug concentration at steady state in fasted human plasma 600 mg, po every 24 hrs measured on day 8; type: ADME, organism-based; conditions: read-out: Drug uptake
# [30] = Tmax in fasted human at 1000 mg, po every 24 hrs measured on day 8; type: ADME, organism-based; conditions: in vivo
# [31] = Drug concentration at steady state in fasted human plasma at 800 mg, po every 24 hrs measured on day 8; type: ADME, organism-based; conditions: read-out: Drug uptake
# [32] = Drug excretion in rat urine; type: ADME, tissue-based; conditions: read-out: Activity
# [33] = Cmax in fasted human at 800 mg, po every 24 hrs measured on day 8; type: ADME, organism-based; set-up: dose 800 mg, route oral; conditions: in vivo
compound,measurement,setting,value
O=C(CSc1nnc(Br)n1-c1ccc(C2CC2)c2ccccc12)Nc1ccc(C(=O)O)cc1Cl,AUC at 24 h,[1],17400 ng·h/mL
same,Cmax,[2],2990 ng/mL
same,Activity,[3],-1.948 mL⁻¹
same,Cmax,[4],3700 ng/mL
same,Activity,[5],-0.18 mL⁻¹
same,Cmax,[6],667 ng/mL
same,Tmax,[7],2 h
same,Activity,[8],58 µmol/L
same,Activity,[9],81 µmol/L
same,Activity,[10],100.74 /mm3
same,Activity,[11],-14.44 /mm3
same,concentration at 12 h,[12],505 ng/mL
same,Cmax,[13],746 ng/mL
same,fraction unbound,[14],< 0.01
same,Activity,[15],Non-toxic
same,Activity,[16],19.22 /mm3
same,CL renal,[17],≤ 1 mL/min
same,Tmax,[18],3 h
same,Activity,[19],-39.17 /mm3
same,dose excreted,[20],< 0.06%
same,AUC at 12 h,[21],3160 ng·h/mL
same,EC50,[22],1.7 ng/mL
same,Activity,[23],-1.7426 mL⁻¹
same,Activity,[24],88 µmol/L
same,AUC at 12 h,[25],3770 ng·h/mL
same,Activity,[26],71.04 /mm3
same,dose excreted,[27],< 0.06%
same,Activity,[28],-1.696 mL⁻¹
same,concentration at 24 h,[29],276 ng/mL
same,Tmax,[30],3 h
same,concentration at 24 h,[31],310 ng/mL
same,dose excreted,[32],< 0.06%
same,Cmax,[33],1910 ng/mL

# Reference: ChEMBL document CHEMBL1629701, “Phase 2a randomized controlled trial of short-term activity, safety, and pharmacokinetics of a novel nonnucleoside reverse transcriptase inhibitor, RDEA806, in HIV-1-positive, antiretroviral-naive subjects” (Antimicrob Agents Chemother, 2010)
